Data published in PubChem BioAssay AID248 (DTP/NCI, 2004).
Where “and” joins values, the source holds several entries; their conditions need not be identical. Identical values can stand only once. Toxic doses and inconclusive results are not listed. Cut-off read from the data, not from the text of the source: active = T/C of 150% or more; inactive = T/C below 125%. Square brackets hold non-standard residues; d marks the D form. Peptide text beside a SMILES is read from it. * marks the point of attachment. ξ: configuration not given here. Cbz = O=C(OCc1ccccc1)*; OBn = c1ccc(CO*)cc1; ξS = NC(CO)C(=O)O

Tested on: L1210 leukemia ip in BDF1 mice, survival T/C
Assay: NCI In Vivo Anticancer Drug Screen. Data for tumor model L1210 Leukemia (intraperitoneal) in B6D2F1 (BDF1) mice
Settings: endpoint: mean survival time, higher = longer survival
In short: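 In this screen, tumor-bearing mice given compound are compared to those given vehicle, and their survival values are reported as a treated-to-control quotient.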

[1] = dose: 100.0 mg/kg/injection, schedule: Q01DX001 (ip), vehicle: saline
[2] = dose: 200.0 mg/kg/injection, schedule: Q01DX001 (ip), vehicle: saline
[3] = dose: 400.0 mg/kg/injection, schedule: Q01DX001 (ip), vehicle: saline
[4] = dose: 100.0 mg/kg/injection, schedule: Q01DX001 (ip), vehicle: saline with Tween-80
[5] = dose: 100.0 mg/kg/injection, schedule: Q04DX003 (ip), vehicle: Klucel (hydroxypropylcellulose) (HPC)
[6] = dose: 200.0 mg/kg/injection, schedule: Q04DX003 (ip), vehicle: Klucel (hydroxypropylcellulose) (HPC)
[7] = dose: 400.0 mg/kg/injection, schedule: Q04DX003 (ip), vehicle: Klucel (hydroxypropylcellulose) (HPC)
[8] = dose: 50.0 mg/kg/injection, schedule: Q01DX009 (ip), vehicle: saline with Tween-80
[9] = dose: 100.0 mg/kg/injection, schedule: Q01DX009 (ip), vehicle: saline with Tween-80
[10] = dose: 200.0 mg/kg/injection, schedule: Q01DX001 (ip), vehicle: saline with Tween-80
[11] = dose: 100.0 mg/kg/injection, schedule: Q04DX002 (ip), vehicle: saline with Tween-80
[12] = dose: 200.0 mg/kg/injection, schedule: Q04DX002 (ip), vehicle: saline with Tween-80
[13] = dose: 400.0 mg/kg/injection, schedule: Q04DX002 (ip), vehicle: saline with Tween-80
[14] = dose: 50.0 mg/kg/injection, schedule: Q04DX003 (ip), vehicle: saline with Tween-80
[15] = dose: 100.0 mg/kg/injection, schedule: Q04DX003 (ip), vehicle: saline with Tween-80
[16] = dose: 200.0 mg/kg/injection, schedule: Q04DX003 (ip), vehicle: saline with Tween-80
[17] = dose: 400.0 mg/kg/injection, schedule: Q04DX003 (ip), vehicle: saline with Tween-80
[18] = dose: 400.0 mg/kg/injection, schedule: Q01DX001 (ip), vehicle: saline with Tween-80

Measured: T/C

Cc1nc2cc(N=Cc3ccc(N(CCCl)CCCl)cc3)ccc2n1C
inactive: dose: 68.8 mg/kg/injection, schedule: Q04DX002 (ip), vehicle: Klucel (hydroxypropylcellulose) (HPC) 104 % of control | dose: 137.5 mg/kg/injection, schedule: Q04DX002 (ip), vehicle: Klucel (hydroxypropylcellulose) (HPC) 104 % of control | dose: 275.0 mg/kg/injection, schedule: Q04DX002 (ip), vehicle: Klucel (hydroxypropylcellulose) (HPC) 104 % of control

Cc1cc(Cl)nc2ccc(Cc3ccccc3)cc12
inactive: [1] 102 % of control | [2] 96 % of control | [3] 103 % of control

COc1ccc(C(O)CCN2CCCCC2)cc1 (stereo not given)
inactive: [4] 112 % of control

Cc1c(CCC(C)C)oc2cc3oc(CCC(C)C)c(C)c3cc12
inactive: dose: 75.0 mg/kg/injection, schedule: Q01DX001 (ip), vehicle: carboxymethylcellulose (CMC) 96 % of control | dose: 150.0 mg/kg/injection, schedule: Q01DX001 (ip), vehicle: carboxymethylcellulose (CMC) 90 % of control | dose: 300.0 mg/kg/injection, schedule: Q01DX001 (ip), vehicle: carboxymethylcellulose (CMC) 90 % of control

CCOC(=O)Nc1cc(Cl)c2n[nH]nc2n1
inactive: dose: 25.0 mg/kg/injection, schedule: Q01DX005 (ip), vehicle: saline 105 % of control | dose: 50.0 mg/kg/injection, schedule: Q01DX005 (ip), vehicle: saline 113 % of control | dose: 100.0 mg/kg/injection, schedule: Q01DX005 (ip), vehicle: saline 110 % of control

CC1CN(Cc2cccc(C#N)c2)CC(C)N1 (stereo not given)
inactive: dose: 25.0 mg/kg/injection, schedule: Q01DX009 (ip), vehicle: water 93 % of control | dose: 50.0 mg/kg/injection, schedule: Q01DX009 (ip), vehicle: water 101 % of control | dose: 100.0 mg/kg/injection, schedule: Q01DX009 (ip), vehicle: water 100 % of control

O=C(CNC(=O)OCc1ccccc1)NC(CO)C(=O)OCc1ccccc1 (stereo not drawn) (Cbz-Gly-[ξS]-OBn)
inactive: [5] 101 % of control | [6] 101 % of control | [7] 105 % of control

O=Cc1[nH]c(=O)[nH]c(=O)c1Br
inactive: [8] 94 % of control | [4] 112 % of control | [9] 98 % of control | [10] 116 % of control

C=CC1CCC2OC(=O)C(=C)C2C1 (stereo not given)
inactive: dose: 100.0 mg/kg/injection, schedule: Q04DX003 (ip), vehicle: saline 101 % of control | dose: 200.0 mg/kg/injection, schedule: Q04DX003 (ip), vehicle: saline 95 % of control | dose: 400.0 mg/kg/injection, schedule: Q04DX003 (ip), vehicle: saline 101 % of control

CN(CCO)N=Nc1ccccc1Cl
inactive: dose: 25.0 mg/kg/injection, schedule: Q01DX009 (ip), vehicle: other 101 % of control | dose: 50.0 mg/kg/injection, schedule: Q01DX009 (ip), vehicle: other 100 % of control | dose: 100.0 mg/kg/injection, schedule: Q01DX009 (ip), vehicle: other 94 % of control

Cc1ccc(S(=O)(=O)OCC(C)([N+](=O)[O-])[N+](=O)[O-])cc1
inactive: [11] 94 % of control | [12] 97 % of control | [13] 101 % of control

O=S(=O)(c1ccccc1)c1nn2nnnc2c2ccccc12
inactive: [14] 107 % of control | [15] 104 % of control | [16] 103 % of control

CCC(C)C(CN)(CCCN1CCCC1)c1cccc2ccccc12 (stereo not given)
inactive: [15] 92 % of control | [16] 89 % of control | [17] 101 % of control

COC(=O)C1C2CC3c4[nH]c5cc(OC)ccc5c4CCN3CC2CC(OC)C1OC (stereo not given)
inactive: dose: 0.78 mg/kg/injection, schedule: Q03HX024 (ip), vehicle: saline 104 % of control | dose: 1.56 mg/kg/injection, schedule: Q03HX024 (ip), vehicle: saline 96 % of control | dose: 2.0 mg/kg/injection, schedule: Q01DX009 (ip), vehicle: saline 93 % of control | dose: 3.12 mg/kg/injection, schedule: Q03HX024 (ip), vehicle: saline 100 % of control | dose: 4.0 mg/kg/injection, schedule: Q01DX009 (ip), vehicle: saline 94 % of control | dose: 6.25 mg/kg/injection, schedule: Q03HX024 (ip), vehicle: saline 110 % of control | dose: 6.25 mg/kg/injection, schedule: Q04DX003 (ip), vehicle: saline 95 % of control | dose: 8.0 mg/kg/injection, schedule: Q01DX009 (ip), vehicle: saline 88 % of control | dose: 12.5 mg/kg/injection, schedule: Q04DX003 (ip), vehicle: saline 97 % of control | dose: 16.0 mg/kg/injection, schedule: Q01DX009 (ip), vehicle: saline 89 % of control | dose: 18.75 mg/kg/injection, schedule: Q01DX001 (ip), vehicle: saline 102 % of control | dose: 25.0 mg/kg/injection, schedule: Q04DX003 (ip), vehicle: saline 102 % of control | dose: 32.0 mg/kg/injection, schedule: Q01DX009 (ip), vehicle: saline 96 % of control | dose: 37.5 mg/kg/injection, schedule: Q01DX001 (ip), vehicle: saline 112 % of control | dose: 50.0 mg/kg/injection, schedule: Q04DX003 (ip), vehicle: saline 105 % of control and 122 % of control | dose: 75.0 mg/kg/injection, schedule: Q01DX001 (ip), vehicle: saline 112 % of control

CC1C2CC3C(OC(=O)C13C)C2I (stereo not given)
inactive: [1] 110 % of control | [2] 96 % of control | [3] 113 % of control

BrCOCCCCOCBr
inactive: dose: 44.0 mg/kg/injection, schedule: Q01DX009 (ip), vehicle: saline with Tween-80 109 % of control | dose: 50.0 mg/kg/injection, schedule: Q01DX001 (ip), vehicle: saline with Tween-80 102 % of control | [8] 108 % of control | dose: 50.0 mg/kg/injection, schedule: Q04DX002 (ip), vehicle: saline with Tween-80 105 % of control | [14] 110 % of control | dose: 67.0 mg/kg/injection, schedule: Q01DX009 (ip), vehicle: saline with Tween-80 112 % of control | [4] 102 % of control | [9] 109 % of control | [11] 107 % of control | [15] 107 % of control | dose: 150.0 mg/kg/injection, schedule: Q01DX009 (ip), vehicle: saline with Tween-80 107 % of control | [10] 104 % of control | dose: 200.0 mg/kg/injection, schedule: Q01DX009 (ip), vehicle: saline with Tween-80 104 % of control | [12] 105 % of control | [16] 109 % of control | [18] 107 % of control | [13] 91 % of control | [17] 103 % of control

CS(=O)CCCC(=O)O (stereo not given)
inactive: [4] 102 % of control | [10] 94 % of control | [18] 97 % of control

O=c1ccc2c([nH]1)CCCCC2
inactive: [5] 106 % of control | [6] 100 % of control | [7] 95 % of control

Clc1ccc(N=Cc2ccc(C=Nc3ccc(Cl)c(Cl)c3)cc2)cc1Cl
inactive: [5] 97 % of control | dose: 200.0 mg/kg/injection, schedule: Q01DX009 (ip), vehicle: saline sonified 89 % of control | [6] 89 % of control | [7] 96 % of control
